Results published in US8722623B2, “Compositions and methods utilizing fibrin beta chain fragments” (University of Maryland, Baltimore, priority 2007, dated 2014).
“Also recorded” adds a separate entry of the source. No end group written: not given here.

Assays:
VE-cadherin [1] = assay: Surface plasmon resonance binding of peptides to immobilized VE-cadherin fragment; conditions: for binding to VE-cadherin: added at 400 nM; for affinity to VE-cadherin (in words): comparison between peptides
Experimental: To test binding activities of fibrin beta chain derived peptides of the invention to VE-caherin, surface plasmon resonance (SPR) methods are, for example, used. SPR experiments are performed using, for example, a BIAcore 3000 biosensor (BIAcore AB, Uppsala, Sweden), which can be used to measure the association/dissociation of peptides or proteins in real-time (see, for example, Karlsson, R., and Falt, A. J. Immunol. Methods (1997) 200, 121-133; Hall, D. Anal. Biochem. (2001) 288, 109-125; see also Gorlatov et al. Biochemistry (2002) 41, 4107-4116 for other VE-cadherin binding assays including, for example, SPR IAsys Analysis based assays and ELISA based assays). An exemplary method is described in the following passage. VE-cadherin fragment is covalently coupled via epsilon-amino groups to the activated surface of a CM5 biosensor chip by the procedure described by, for example, Karlsson, R., and Falt, A. (J. Immunol. Methods (1997) 200, 121-133; see also Gorlatov et al. Biochemistry (2002) 41, 4107-4116). Briefly, the carboxyl groups on the sensor surface were activated with an injection of a solution containing, for example, 0.2 M N-ethyl-N-(3-diethylamino-propyl) carbodiimide and 0.05 M N-hydroxysuccinimide. VE-cadherin to be coupled is prepared in 10 mM sodium-acetate buffer, pH 4.0, containing 1 mM CaCl2, and injected onto the activated CM5 surface at 5 mL/min followed by incubation for 7 min after which the surface was deactivated by passing 1 M ethanolamine. Activation time, ligand concentration, and contact time are adjusted to achieve a coupling density of 5-6 ng/mm2. Binding experiments are performed, for example, in 10 mM Hepes buffer, pH 7.4, containing 200 mM NaCl, 1 mM CaCl2, 0.02% NaN3, and 0.05% n-octyl beta-D-glucopyranoside (binding buffer). Samples comprising, for example, fibrin beta chain derived peptides β15-42, β15-64, and (β15-66)2, at different concentrations are injected in duplicate in at least three separate experiments and the association/dissociation between the immobilized and the added peptides is monitored as the change in the SPR response. To regenerate the chip, complete dissociation of the complex was achieved by adding, for example, 20 mM Tris buffer, pH 7.5, containing 0.5 M urea, 0.5 M NaCl, and 0.5% Triton X-100, for 1 min following reequilibration with binding buffer. Experimental data are analyzed using, for example, BIAevaluation 3.0 software supplied with the instrument. Briefly, kinetic constants, kass and kdis, are estimated by global analysis of the association/dissociation curves to the 1:1 Langmurian interaction model (Morton, T. A., and Myszka, D. G. Methods Enzymol. (1998) 295, 268-294). The dissociation equilibrium constant (Kd) is calculated as Kd=kdiss/kass. It is also noted that other methods known to one of ordinary skill in the art can be used to determine binding activities of fibrin beta chain derived peptides of the invention to VE-caherin including, for example, ELISA-based methods (see, for example, Gorlatov et al. Biochemistry (2002) 41, 4107-4116).

[2] = test system: leukocyte (neutrophil) migration into the peritoneum; assay: Thioglycollate-induced in vivo peritonitis model of leukocyte migration; set-up: species or system mouse; conditions: for leukocyte migration / number of leukocytes accumulating in the peritoneum: peptide i.v. prior to i.p. thioglycollate, peritoneal lavage at 4 h, versus PBS control; for inhibition of leukocyte infiltration and migration compared to β15-42: (β15-66)2 8.6 mg/kg, (β15-44)2 5.1 mg/kg
Experimental: We compared their anti-inflammatory effects in an in vivo peritonitis model, a well established mouse model for leukocyte migration into sites of acute inflammation. In this model, leukocyte migration from the circulation into the peritoneum was stimulated by intraperitoneal (i.p.) injection of thioglycollate, and leukocyte (neutrophil) accumulation was evaluated after 4 hours by measuring the cell number in the peritoneal lavage.
Leukocyte (e.g., neutrophil) infiltration is a hallmark of injury associated with ischemia and reperfusion, as well as a number of other inflammatory conditions. Therefore, peptides of the invention are tested to determine the ability to decrease leukocyte infiltration in vivo. The ability to inhibit leukocyte infiltration was tested in an in vivo model of peritonitis, which is a well established mouse model for leukocyte infiltration and migration into sites of inflammation. The protocol for this animal model is described as below. Experiments were performed consistent with accepted practice (see, for example, Bosse et al. 1994. Eur. J. Immunol. 24: 3019; Borges et al. 1997. Blood 90: 1934; US Patent Application Publication No. 20030105020). To induce peritonitis, thioglycollate was administered intraperitoneally (i.p.) to mice. For inhibition studies, mice were injected intravenously (i.v.) with either β15-42, (β15-44)2, or (β15-66)2 prior to i.p. injection of thioglycollate (FIG. 4). Control mice were treated with the same volume of PBS. All reagents are kept endotoxin-free. At 4 h after injection of thioglycollate, mice were sacrificed and the peritoneal lavage was generated by, for example, injecting 10 ml PBS, massaging the peritoneal wall, and removing the fluid. Following the peritoneal lavage, leukocytes were quantified (e.g., neutrophil quantification determined using a hemocytometer).

ischemic myocardium = assay: Coronary artery ligation mouse model of myocardial infarction (ischemia and reperfusion); type: in vivo; conditions: MI mice, i.v., about 16 nanomoles
Source text: To confirm the ability of (β15-66)2, (β15-44)2, (β15-40)2, (β15-35)2, and β15-42 to protect (with the former peptides showing increased protection over β15-42) against injury following ischemia and reperfusion an animal model of myocardial infarction (MI) is employed. The effect of the β15-42, (β15-66)2, (β15-44)2, (β15-40)2, and (β15-35)2 (and other fibrin beta chain derived peptides of the invention) on the protection and infiltration and migration of leukocytes into the ischemic myocardium is determined by, for example, using a coronary artery ligation mouse model of MI. To determine the efficacy of these peptides to protect against injury and inhibit leukocyte infiltration and migration into the myocardium following ischemia a fibrin beta chain derived peptide is administered (for example, at a dose of about 16 nanomoles, which can be adjusted accordingly to determine efficacy) i.v. into 8-12 week-old C57BL6 mice (20 to 25 g), for example, prior to left anterior descending (LAD) coronary artery ligation, upon reperfusion, or after reperfusion. Mice injected with PBS are used as controls. […] Administration can be adjusted based on, for example, pharmacodynamic and pharmacokinetic properties.
The study may comprise at least 7 different groups: sham-operated control (group #1), MI mice with no treatment (group #2), and MI mice treated with β15-42 (group #3), (β15-66)2 (group #4), (β15-44)2 (group #5), (β15-40)2 (group #6), and (β15-35)2 (group #7). To ensure objectivity, these experiments are conducted in a double-blind and placebo-controlled manner. Thus, β15-42, (β15-66)2, (β15-44)2, (β15-40)2, (β15-35)2, and PBS are assigned randomly to a reference number, which is blinded to the personnel involved in conducting the surgery and performing post-surgery analysis. […] Leukocyte infiltration into the ischemic myocardium is determined by H&E staining and cardiomyocyte apoptosis is determined by TdT-mediated dUTP Nick-End Labeling (TUNEL) staining. […]

VE-cadherin [3] = target: T1, VE-cadherin (Homo sapiens, UniProt P33151); conditions: cited from earlier work
T1 sequence (P33151 48-784): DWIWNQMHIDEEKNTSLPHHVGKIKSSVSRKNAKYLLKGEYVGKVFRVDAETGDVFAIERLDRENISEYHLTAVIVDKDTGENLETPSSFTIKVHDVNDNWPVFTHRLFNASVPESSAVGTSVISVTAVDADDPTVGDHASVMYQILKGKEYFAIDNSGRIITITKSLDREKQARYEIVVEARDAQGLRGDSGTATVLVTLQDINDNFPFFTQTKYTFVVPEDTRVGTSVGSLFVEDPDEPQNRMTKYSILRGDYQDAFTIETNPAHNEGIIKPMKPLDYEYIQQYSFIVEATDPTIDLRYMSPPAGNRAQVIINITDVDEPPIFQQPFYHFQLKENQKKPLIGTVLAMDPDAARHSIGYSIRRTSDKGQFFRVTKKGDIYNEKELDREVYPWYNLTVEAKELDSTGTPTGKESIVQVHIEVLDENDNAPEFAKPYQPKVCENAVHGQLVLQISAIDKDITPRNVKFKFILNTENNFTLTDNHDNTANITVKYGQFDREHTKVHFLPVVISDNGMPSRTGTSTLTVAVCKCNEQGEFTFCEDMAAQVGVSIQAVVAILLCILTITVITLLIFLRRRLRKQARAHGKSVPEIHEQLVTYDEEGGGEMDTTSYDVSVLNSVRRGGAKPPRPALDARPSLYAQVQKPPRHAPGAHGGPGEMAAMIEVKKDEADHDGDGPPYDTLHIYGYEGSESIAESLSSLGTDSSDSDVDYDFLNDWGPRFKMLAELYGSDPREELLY

[4] = test system: myocardial ischemia-reperfusion injury; conditions: acute or chronic rat models; cited from earlier work

| Substance | binding to VE-cadherin (VE-cadherin [1]) | leukocyte migration / number of leukocytes accumulating in the peritoneum [2] | inhibition of leukocyte infiltration and migration compared to β15-42 ([2]; peritonitis model, 4 h) | efficacy compared to β15-42 (ischemic myocardium) | affinity to VE-cadherin (in words) (VE-cadherin [1]) | also measured |
| --- | --- | --- | --- | --- | --- | --- |
| β15-64: monomeric fibrin β chain residues 15-64 (fibrin βN-domain) [reference compound] | very little binding | – | – | – | – | – |
| (β15-44)2: synthetic dimer; monomer GHRPLDKKREEAPSLRPAPPPISGGGYRCG (SEQ ID NO:5), Cys43-Cys43 disulfide bond (GHRPLDKKREEAPSLRPAPPPISGGGYRCG; also: Cys43-Cys43 disulfide homodimer) | – | inhibits leukocyte migration | almost twice as much | increased efficacy | comparable to that of (β15-66)2; also recorded: even higher affinity | number of leukocytes compared to β15-44 ([2]; peritonitis model, 4 h): decrease in the number of leukocytes; inhibitory effect on leukocyte transmigration compared to (β15-66)2 ([2]; peritonitis model, FIG. 4): superior |
| (β15-40)2: dimer; monomer GHRPLDKKREEAPSLRPAPPPISYCG (SEQ ID NO:6) (GHRPLDKKREEAPSLRPAPPPISYCG; also: disulfide-linked homodimer) | – | – | even further inhibit leukocyte infiltration and migration | increased efficacy | even higher affinity | – |
| (β15-35)2: dimer; monomer GHRPLDKKREEAPSLRPAYCG (SEQ ID NO:7) (GHRPLDKKREEAPSLRPAYCG; also: disulfide-linked homodimer) | – | – | even further inhibit leukocyte infiltration and migration | increased efficacy | even higher affinity | affinity to VE-cadherin compared to both (β15-44)2 and (β15-40)2 (VE-cadherin [1]; FIG. 3): unexpectedly higher degree of affinity |
| thymosin β4 (SDKPDMAEIEKFDKSKLKKTETQEKNPLPSKETIEQEKQAGES; Thymosin beta-4; UniProt P62328 2-44, looked up) [TB4] | – | inhibits leukocyte migration | – | – | – | – |
| β15-42: peptide which includes amino acid residues 15-42 of the fibrin β chain (GHRPLDKKREEAPSLRPAPPPISGGGYR) [reference compound] | very little binding | significantly lower; also recorded: inhibits leukocyte migration | – | – | weak | competition with fibrin for the interaction with VE-cadherin (VE-cadherin [3]): competes with fibrin for the interaction with VE-cadherin; myocardial inflammation and infarct size [4]: substantially reduced |
